Measured values reported in patent US7473711B2, “Androgen modulators” (Pfizer Inc., priority 2004, dated 2009).

Tested on: sebum production
Assay: Animal model for inhibition of sebum production (hamster ear, HPLC of sebum lipids)
Assay type: in vivo, male Syrian hamsters
Conditions: 4 weeks; for Sum CE + WE: sum of CE and WE reductions; for % Reduction in CE / % Reduction in WE: five days a week; for % Reduction in CE: cholesterol ester vs vehicle control; for % Reduction in WE: wax ester vs vehicle control
Method: Animal Model for Inhibition of Sebum Production
Luderschmidt et al describes an animal model for testing whether compounds are capable of modulating sebum secretion. Arch. Derm. Res. 258, 185-191 (1977). This model uses male Syrian hamsters, whose ears contain sebaceous glands. The products of Examples 24, 27 and 28 were screened in this model.
Testing for sebum inhibition was carried out in the following manner. Male Syrian hamsters aged 9 to 10 weeks were introduced into the laboratory environment and acclimated for 2 weeks prior to use in the study. Each group consisted of 5 animals and run in parallel with vehicle and positive controls. Prior to administration, a sufficient quantity each compound was dissolved in 1 mL of a solvent consisting of transcutanol, ethanol, and propylene glycol (20/60/20% v/v) to achieve a final concentration of 0.5 w/v % or 3.0 w/v %.
Animals were dosed topically twice daily, five days a week, for 4 weeks. Each dose consisted of 25 micro liters of vehicle control or drug. The dose was applied to the ventral surfaces of both the right and left ears. All animals were sacrificed approximately 18-24 hours after the final dose. The right ears were collected from each animal and used for sebum analysis.
The ears were prepped for HPLC analysis in the following manner. One 8 mm distal biopsy punch was taken, just above the anatomical “V” mark in the ear to normalize the sample area. The punch was pulled apart. The ventral biopsy surface (the area where the topical dose was directly applied to the sebaceous glands) was retained for testing and the dorsal surface of the biopsy punch was discarded.
Tissue samples were blown with N2 gas and stored at −80° C. under nitrogen until HPLC analysis. In addition to ear samples, an aliquot of each drug and vehicle (at least 250 ul) was also stored at −80° C. for inclusion in the HPLC analysis.
HPLC analysis was carried out on an extract of the tissue sample. Tissue samples were contacted with 3 ml of solvent (a 4:1 admixture of 2,2,4-trimethylpentane and isopropyl alcohol). The mixture was shaken for 15 minutes and stored overnight at room temperature, protected from light. The next morning 1 milliliter of water was added to the sample and shaken for 15 minutes. The sample was then centrifuged at approximately 1500 rpm for 15 minutes. Two ml of the organic phase (top layer) was transferred to a glass vial, dried at 37° C., under nitrogen, for approximately 1 hour, and then lyophilized for approximately 48 hours. The samples were then removed from the lyophilizer and each vial was reconstituted with 600 μl of solvent A (trimethylpentane/tetrahydrofuran (99:1). The samples were then recapped and vortexed for 5 minutes.
200 μl of each sample was then transferred to a pre-labeled 200 μl HPLC vial with 200 μL glass inserts. The HPLC vials were placed in the autosampler tray for the Agilent 1100 series HPLC unit. The Agilent 1100 HPLC system consisted of a thermostated autosampler, a quarternary pump, a column heater, and an A/D interface module. All components were controlled by Agilent ChemStation software. A Waters Spherisorb S3W 4.6×100 mm analytical column was maintained at 30° C. by the Agilent column heater unit. The HPLC autosampler was programmed to maintain the sample temperature at 20 C throughout the run.
10 uL of each sample was injected in triplicate into the column. Two solvents were used for the solvent gradient. Solvent A was an admixture of trimethylpentane and tetrahydrofuran (99:1). Solvent B was ethylacetate. The gradient utilized is described in the table below: […]
The Sedex 75 Evaporative Light Scattering Detector (ELSD) was operated at 45° C. with a gain of 5, and N2 pressure maintained at 3.1 bar. Analog signal obtained by the instrument was sent to the Agilent A/D interface module where it was converted to a digital output. The conversion was based on a 10000 mAU/volt set point and the data rate was set at 10 Hz (0.03 min). […]

[1] = 0.5 w/v % topical twice daily, negative = increase in sebum

Structure (SMILES): COCC(COc1ccccc1)Oc1ccc(C#N)c(C(F)(F)F)c1 (stereo not drawn) [Example 27, 4-(1-Methoxymethyl-2-phenoxy-ethoxy)-2-trifluoromethyl-benzonitrile]
- Sum CE + WE (3 w/v % topical twice daily): 147
- % Reduction in CE (3 w/v % topical twice daily): 63%
- % Reduction in WE (3 w/v % topical twice daily): 84%

Structure (SMILES): N#Cc1ccc(OC(CO)COc2ccccc2)cc1C(F)(F)F (stereo not drawn) [Example 28, 4-(1-Hydroxymethyl-2-phenoxy-ethoxy)-2-trifluoromethyl-benzonitrile]
- Sum CE + WE (3 w/v % topical twice daily): 40
- % Reduction in CE (3 w/v % topical twice daily): 11%
- % Reduction in WE (3 w/v % topical twice daily): 19%

Structure (SMILES): N#Cc1ccc(OCCCCCOc2ccc(C#N)c(C(F)(F)F)c2)cc1C(F)(F)F [Example 24]
- Sum CE + WE (0.5 w/v % topical twice daily): −74
- % Reduction in CE [1]: −33%
- % Reduction in WE [1]: −41%
